Experimental data taken from PubChem BioAssay AID1259407 (Chemical Carcinogenesis Research Information System (CCRIS), 2018).
Activity calls are given as the source filed them. The rule behind the calls is not given here.

Tested on: CCRIS mutagenicity, Ames/micronucleus/aberration tests
Test: CCRIS mutagenicity studies
[1] = Test System: AMES SALMONELLA TYPHIMURIUM, Strain/Indicator: TA98, Metabolic Activation: NONE, Method: PREINCUBATION

For `CC1=C(/C=C/C(C)=C/C=C/C(C)=C/C=C/C=C(C)/C=C/C=C(C)/C=C/C2=C(C)CCCC2(C)C)C(C)(C)CCC1`, the mutagenic call (End Point: IN VITRO CHROMOSOMAL ABERRATIONS, Test System: F344 FEMALE RAT HEPATOCYTE, Metabolic Activation: NONE) was “active; positive”, the mutagenic call (End Point: IN VITRO MICRONUCLEUS, Test System: F344 FEMALE RAT HEPATOCYTES, Metabolic Activation: NONE) was “active; positive” and the mutagenic call (Test System: AMES SALMONELLA TYPHIMURIUM, Strain/Indicator: TA97, Metabolic Activation: NONE, Method: PREINCUBATION) was “inactive; negative”. The mutagenic call (Test System: AMES SALMONELLA TYPHIMURIUM, Strain/Indicator: TA97, Metabolic Activation: S-9, Method: PREINCUBATION) was “inactive; negative”, the mutagenic call (Test System: AMES SALMONELLA TYPHIMURIUM, Strain/Indicator: TA98, Metabolic Activation: NONE, Method: STANDARD PLATE) was “inactive; negative” and the mutagenic call (Test System: AMES SALMONELLA TYPHIMURIUM, Strain/Indicator: TA98, Metabolic Activation: RAT, LIVER, S-9, AROCLOR 1254, Method: STANDARD PLATE) was “inactive; negative”. For the same compound, the mutagenic call (Test System: AMES SALMONELLA TYPHIMURIUM, Strain/Indicator: TA100, Metabolic Activation: NONE, Method: STANDARD PLATE) was “inactive; negative”, the mutagenic call (Test System: AMES SALMONELLA TYPHIMURIUM, Strain/Indicator: TA100, Metabolic Activation: RAT, LIVER, S-9, AROCLOR 1254, Method: STANDARD PLATE) was “inactive; negative” and the mutagenic call (Test System: AMES SALMONELLA TYPHIMURIUM, Strain/Indicator: TA102, Metabolic Activation: NONE, Method: PREINCUBATION) was “inactive; negative”. For the same compound, the mutagenic call (Test System: AMES SALMONELLA TYPHIMURIUM, Strain/Indicator: TA102, Metabolic Activation: S-9, Method: PREINCUBATION) was “inactive; negative”.
In the case of `Nc1cccc2nc3cccc(N)c3nc12`, the mutagenic call [1] is reported as “inactive; negative” and the mutagenic call (Test System: AMES SALMONELLA TYPHIMURIUM, Strain/Indicator: TA98, Metabolic Activation: RAT, LIVER, S-9, PCB, Method: PREINCUBATION) is reported as “inactive; negative”.
In the case of `[O]=[Cr][O][Cr]=[O]`, the mutagenic call (Test System: CHINESE HAMSTER V-79, Strain/Indicator: V-79/6-THIOGUANINE, Metabolic Activation: NONE) is reported as “active; positive”.
In the case of `COC(=O)C1=C(C)NC(C)=C(C(=O)OC/C=C/c2ccccc2)C1c1cccc([N+](=O)[O-])c1` (stereo not drawn), the mutagenic call [1] is reported as “inactive; negative”, the mutagenic call (Test System: AMES SALMONELLA TYPHIMURIUM, Strain/Indicator: TA98, Metabolic Activation: RAT, LIVER, S-9, PHENOBARBITAL AND 5,6-BENZOFLAVONE, Method: PREINCUBATION) is reported as “inactive; negative” and the mutagenic call (Test System: AMES SALMONELLA TYPHIMURIUM, Strain/Indicator: TA100, Metabolic Activation: NONE, Method: PREINCUBATION) is reported as “inactive; negative”. For the same compound, the mutagenic call (Test System: AMES SALMONELLA TYPHIMURIUM, Strain/Indicator: TA100, Metabolic Activation: RAT, LIVER, S-9, PHENOBARBITAL AND 5,6-BENZOFLAVONE, Method: PREINCUBATION) was “inactive; negative”, the mutagenic call (Test System: AMES SALMONELLA TYPHIMURIUM, Strain/Indicator: TA1535, Metabolic Activation: NONE, Method: PREINCUBATION) was “inactive; negative” and the mutagenic call (Test System: AMES SALMONELLA TYPHIMURIUM, Strain/Indicator: TA1535, Metabolic Activation: RAT, LIVER, S-9, PHENOBARBITAL AND 5,6-BENZOFLAVONE, Method: PREINCUBATION) was “inactive; negative”. For the same compound, the mutagenic call (Test System: AMES SALMONELLA TYPHIMURIUM, Strain/Indicator: TA1537, Metabolic Activation: NONE, Method: PREINCUBATION) was “inactive; negative”, the mutagenic call (Test System: AMES SALMONELLA TYPHIMURIUM, Strain/Indicator: TA1537, Metabolic Activation: RAT, LIVER, S-9, PHENOBARBITAL AND 5,6-BENZOFLAVONE, Method: PREINCUBATION) was “inactive; negative” and the mutagenic call (Test System: E. COLI, Strain/Indicator: WP2 UVRA, Metabolic Activation: NONE, Method: PREINCUBATION) was “inactive; negative”. For the same compound, the mutagenic call (Test System: E. COLI, Strain/Indicator: WP2 UVRA, Metabolic Activation: RAT, LIVER, S-9, PHENOBARBITAL AND 5,6-BENZOFLAVONE, Method: PREINCUBATION) was “inactive; negative”.
